The structures appear in SMILES notation.

A short description of this experiment: Mannequin head curl retention expert evaluation (air dried hair). The following applies: through 20 washes. An excerpt: Mannequin Head Odor and Curl Expert Evaluation
Control perm: Omniperm™ with ammonium thioglycolate, available from Zotos Professional®, including both the reducing and oxidizing steps.
Curl Retention Assessments:
Treatment and expert sensory performed by licensed cosmetologist with 20+ years expertise in perms. All evaluations shown in graphs were done with hair in dry state, after air drying. Photos are available for most time points as well.

As for `C[n+]1cccc(NCCS)c1.[I-]` [3-((2-mercaptoethyl)amino)-1-methylpyridin-1-ium iodide], the “Curl retention compared with benchmark control perm” value is listed as “equal curl retention”.

Values taken from US12398104B2, “Odorless thiols for permanent waving, straightening and depilatory applications” (The Procter & Gamble Company, priority 2017, dated 2025).
